Our source for the Emax and EC50 values is patent US8859549B2, “Potassium channel modulators” (AbbVie, Inc., priority 2011, dated 2014).

Each structure is given as a SMILES string.

This test deals with T1, KCNQ 2/3 channels (Homo sapiens, UniProt O43525+O43526).
T1 construct: expressed in transfected cells; host or cells: HEK293
Put plainly: KCNQ 2/3 channel activation, thallium flux FLIPR assay (BTC-AM dye). Type of test: cell-based. Conditions: for Emax: HEK293, maximum response relative to the response of 10 μM retigabine (set at 100%), HEK293 KCNQ2/KCNQ3 cells, read-out: % MAX; for EC50: HEK293 cells stably expressing human KCNQ2 and KCNQ3 subunits, thallium-induced fluorescence, 4 min compound incubation. Put shortly:
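HEK293 cells stably expressing human KCNQ2/KCNQ3 were loaded with BTC-AM (3 μg/mL, 2 h, RT) and preincubated with compound for 4 min in pH 7.3 gluconate buffer containing 0.1 mM ouabain. Flux was triggered by 6 mM TlNO3/10 mM K2SO4 and read for 3 min; EC50 came from summed responses over basal, with maximum relative to 10 μM retigabine (100%).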

As usually defined, the EC50 is the concentration giving half of the maximal effect. A lower EC50 goes with higher potency in that assay. Regarding `CC(C)(CC(=O)Nn1nc(-c2ccnc(Cl)c2)c2ccccc2c1=O)c1ccccc1` [Example 48, N-[4-(2-chloropyridin-4-yl)-1-oxophthalazin-2(1H)-yl]-3-methyl-3-phenylbutanamide], the Emax is 133% and a half-maximal effect (EC50) was put at 389 nM. For `O=C(Cc1ccc(Cl)cc1)Nn1nc(-c2ccnc(Cl)c2)c2ccccc2c1=O` [Example 49, 2-(4-chlorophenyl)-N-[4-(2-chloropyridin-4-yl)-1-oxophthalazin-2(1H)-yl]acetamide] the same measures were 107% and 383 nM.

`CN(Cc1ccccc1)c1nn(NC(=O)CC(C)(C)c2ccccc2)c(=O)c2ccccc12` [Example 52, N-{4-[benzyl(methyl)amino]-1-oxophthalazin-2(1H)-yl}-3-methyl-3-phenylbutanamide]: the Emax was 185% and a half-maximal effect (EC50) was put at 102 nM. The matching figures for `CN(Cc1ccccc1)c1nn(NC(=O)Cc2cc(F)cc(F)c2)c(=O)c2ccccc12` [Example 53, N-{4-[benzyl(methyl)amino]-1-oxophthalazin-2(1H)-yl}-2-(3,5-difluorophenyl)acetamide]: 147% and 132 nM. The matching figures for `O=C(Cc1cc(F)cc(F)c1)Nn1nc(Sc2ccccc2)c2ccccc2c1=O` [Example 57, 2-(3,5-difluorophenyl)-N-[1-oxo-4-(phenylsulfanyl)phthalazin-2(1H)-yl]acetamide]: 116% and 38.1 nM. For `O=C(Cc1ccc(Cl)cc1)Nn1nc(Sc2ccccc2)c2ccccc2c1=O` [Example 58, 2-(4-chlorophenyl)-N-[1-oxo-4-(phenylsulfanyl)phthalazin-2(1H)-yl]acetamide] the same measures were 120% and 82.6 nM. As for `CC1CN(c2nn(NC(=O)Cc3cc(F)cc(F)c3)c(=O)c3ccccc23)CC(C)O1` (stereo not shown) [Example 60, 2-(3,5-difluorophenyl)-N-[4-(2,6-dimethylmorpholin-4-yl)-1-oxophthalazin-2(1H)-yl]acetamide], the Emax stood at 105% and the EC50 was found to be 474 nM. Turning to `CC1CN(c2nn(NC(=O)CC(C)(C)c3ccccc3)c(=O)c3ccccc23)CC(C)O1` (stereo not shown) [Example 61, N-[4-(2,6-dimethylmorpholin-4-yl)-1-oxophthalazin-2(1H)-yl]-3-methyl-3-phenylbutanamide], the Emax turned out to be 123% and the EC50 came to 228 nM.

With `CC1CN(c2nn(NC(=O)Cc3ccc(Cl)cc3)c(=O)c3ccccc23)CC(C)O1` (stereo not shown) [Example 62, 2-(4-chlorophenyl)-N-[4-(2,6-dimethylmorpholin-4-yl)-1-oxophthalazin-2(1H)-yl]acetamide], the Emax was 85.8% and it took 369 nM to reach a half-maximal effect (EC50). The matching figures for `CCOC(=O)c1nn(NC(=O)Cc2ccc(Cl)cc2)c(=O)c2ccccc12` [Example 63, ethyl 3-{[(4-chlorophenyl)acetyl]amino}-4-oxo-3,4-dihydrophthalazine-1-carboxylate]: 64.8% and 862 nM. Consider `O=C(Cc1ccc(Cl)cc1)Nn1nc(C(=O)O)c2ccccc2c1=O` [Example 65, 3-{[(4-chlorophenyl)acetyl]amino}-4-oxo-3,4-dihydrophthalazine-1-carboxylic acid], for which the Emax amounted to 30.1%. Same read-out and setting: for `O=C(CC1CCOC1)Nn1nc(N2CCOCC2)c2ccccc2c1=O` (stereo not shown) [Example 66, N-[4-(morpholin-4-yl)-1-oxophthalazin-2(1H)-yl]-2-(tetrahydrofuran-3-yl)acetamide] the value was 3.89%; for `O=C(CC1CCOC1)Nn1nc(-c2ccnc(Cl)c2)c2ccccc2c1=O` (stereo not shown) [Example 67, N-[4-(2-chloropyridin-4-yl)-1-oxophthalazin-2(1H)-yl]-2-(tetrahydrofuran-3-yl)acetamide], 6.78%. For the compound `O=C(CC1(O)CCCCC1)Nn1nc(-c2ccnc(Cl)c2)c2ccccc2c1=O` [Example 71, N-[4-(2-chloropyridin-4-yl)-1-oxophthalazin-2(1H)-yl]-2-(1-hydroxycyclohexyl)acetamide], the Emax is 34%.

In the case of `O=C(CC1CCCO1)Nn1nc(-c2ccnc(Cl)c2)c2ccccc2c1=O` (stereo not shown) [Example 73, N-[4-(2-chloropyridin-4-yl)-1-oxophthalazin-2(1H)-yl]-2-(tetrahydrofuran-2-yl)acetamide], the Emax stood at 172% and the EC50 worked out at 8070 nM. Take `O=C(Cc1ccc(Cl)cc1)Nn1nc(-c2ccnc(C(F)(F)F)c2)c2ccccc2c1=O` [Example 77, 2-(4-chlorophenyl)-N-{1-oxo-4-[2-(trifluoromethyl)pyridin-4-yl]phthalazin-2(1H)-yl}acetamide]: the Emax amounted to 74.9% and the EC50 stood at 458 nM. The matching figures for `Cc1ccc(S(=O)(=O)NCc2nn(NC(=O)Cc3ccc(Cl)cc3)c(=O)c3ccccc23)cc1` [Example 78, 2-(4-chlorophenyl)-N-[4-({[(4-methylphenyl)sulfonyl]amino}methyl)-1-oxophthalazin-2(1H)-yl]acetamide]: 44.1% and 9490 nM.

Turning to `O=C(Cc1ccc(Cl)cc1)Nn1nc(CNS(=O)(=O)C(F)(F)F)c2ccccc2c1=O` [Example 79, 2-(4-chlorophenyl)-N-[1-oxo-4-({[(trifluoromethyl)sulfonyl]amino}methyl)phthalazin-2(1H)-yl]acetamide], the Emax came to 33.6% and the response was half-maximal at 9080 nM (EC50). `CS(=O)(=O)NCc1nn(NC(=O)Cc2ccc(Cl)cc2)c(=O)c2ccccc12` [Example 80, 2-(4-chlorophenyl)-N-[4-{[(methylsulfonyl)amino]methyl}-1-oxophthalazin-2(1H)-yl]acetamide]: the Emax came to 26.5%. Consider `O=C(Cc1ccc(Cl)cc1)Nn1nc([S+]([O-])c2ccccc2)c2ccccc2c1=O` (stereo not shown) [Example 82, 2-(4-chlorophenyl)-N-[1-oxo-4-(phenylsulfinyl)phthalazin-2(1H)-yl]acetamide], for which the Emax is 119% and the EC50 was 872 nM. As for `O=C(Cc1cc(F)cc(F)c1)Nn1nc([S+]([O-])c2ccccc2)c2ccccc2c1=O` (stereo not shown) [Example 83, 2-(3,5-difluorophenyl)-N-[1-oxo-4-(phenylsulfinyl)phthalazin-2(1H)-yl]acetamide], the Emax amounted to 105% and it took 1100 nM to reach a half-maximal effect (EC50). Consider `CC(C)(C)NC(=O)NCc1nn(NC(=O)Cc2ccc(Cl)cc2)c(=O)c2ccccc12` [Example 84, N-[4-{[(tert-butylcarbamoyl)amino]methyl}-1-oxophthalazin-2(1H)-yl]-2-(4-chlorophenyl)acetamide], for which the Emax amounted to 40.8%.

Turning to `CCOC(=O)NCc1nn(NC(=O)Cc2ccc(Cl)cc2)c(=O)c2ccccc12` [Example 85, ethyl[(3-{[(4-chlorophenyl)acetyl]amino}-4-oxo-3,4-dihydrophthalazin-1-yl)methyl]carbamate], the Emax is 87.3% and the EC50 turned out to be 5350 nM.

For `O=C(Cc1ccccc1)NCc1nn(NC(=O)Cc2ccc(Cl)cc2)c(=O)c2ccccc12` [Example 86, 2-(4-chlorophenyl)-N-[1-oxo-4-{[(phenylacetyl)amino]methyl}phthalazin-2(1H)-yl]acetamide], the Emax was 15.7%.

With `CC(C)(C)C(=O)NCc1nn(NC(=O)Cc2ccc(Cl)cc2)c(=O)c2ccccc12` [Example 87, N-[(3-{[(4-chlorophenyl)acetyl]amino}-4-oxo-3,4-dihydrophthalazin-1-yl)methyl]-2,2-dimethylpropanamide], the Emax worked out at 89.1% and the half-maximal effective concentration (EC50) is 10100 nM. The matching figures for `C[C@@H]1CN(c2nn(NC(=O)Cc3cc(F)cc(F)c3)c(=O)c3ccccc23)C[C@H](C)O1` [Example 88, 2-(3,5-difluorophenyl)-N-{4-[(cis)-2,6-dimethylmorpholin-4-yl]-1-oxophthalazin-2(1H)-yl}acetamide]: 107% and 998 nM. The matching figures for `C[C@@H]1CN(c2nn(NC(=O)CC(C)(C)c3ccccc3)c(=O)c3ccccc23)C[C@H](C)O1` [Example 89, N-{4-[(cis)-2,6-dimethylmorpholin-4-yl]-1-oxophthalazin-2(1H)-yl}-3-methyl-3-phenylbutanamide]: 183% and 350 nM. For `O=C(Cc1ccc(Cl)cc1)Nn1nc(N2CCSCC2)c2ccccc2c1=O` [Example 91, 2-(4-chlorophenyl)-N-[1-oxo-4-(thiomorpholin-4-yl)phthalazin-2(1H)-yl]acetamide] the same measures were 164% and 920 nM. With `O=C(Cc1cc(F)cc(F)c1)Nn1nc(N2CCSCC2)c2ccccc2c1=O` [Example 92, 2-(3,5-difluorophenyl)-N-[1-oxo-4-(thiomorpholin-4-yl)phthalazin-2(1H)-yl]acetamide], the Emax was determined as 187% and a half-maximal effect (EC50) was put at 618 nM. `O=C(Cc1ccc(Cl)cc1)Nn1nc(N2CCN(Cc3ccccc3)CC2)c2ccccc2c1=O` [Example 101, N-[4-(4-benzylpiperazin-1-yl)-1-oxophthalazin-2(1H)-yl]-2-(4-chlorophenyl)acetamide]: the Emax came out at 112% and the response was half-maximal at 3490 nM (EC50). On to `CC(C)(C)OC(=O)Nc1ccc(Sc2nn(NC(=O)Cc3ccc(Cl)cc3)c(=O)c3ccccc23)cc1` [Example 103, tert-butyl{4-[(3-{[(4-chlorophenyl)acetyl]amino}-4-oxo-3,4-dihydrophthalazin-1-yl)sulfanyl]phenyl}carbamate], for which the Emax came out at 76%.

For `O=C(Cc1ccc(Cl)cc1)Nn1nc(Cc2ccc(Cl)[n+]([O-])c2)c2ccccc2c1=O` [Example 104, N-{4-[(6-chloro-1-oxidopyridin-3-yl)methyl]-1-oxophthalazin-2(1H)-yl}-2-(4-chlorophenyl)acetamide], the Emax came to 11.7%.
